ChEMBL document CHEMBL1159103, “Discovery of biaryl inhibitors of H+/K+ ATPase” (Bioorg Med Chem Lett, 2010)

Experiment: Inhibition of H(+)/K(+) ATPase

Compound	pIC50
COc1c(-c2c(C)cccc2C)cc2c(c1-c1nc(C)c(C)[nH]1)OCC2	5.5
Cc1cccc(C)c1-c1ccc(OCC(N)=O)c(-c2nc(C)c(C)[nH]2)c1	5.7
Cc1cccc(C)c1-c1ccc(OCc2ccccc2)c(-c2nc(C)c(C)[nH]2)c1	5.3
Cc1cccc(C)c1-c1cc(-c2nc(C)c(C)[nH]2)co1	< 4
Cc1nc(-c2cccc(CCc3ccccc3)c2)[nH]c1C	4.3
Cc1cccc(C)c1-c1ccc(-c2nc(C)c(C)[nH]2)o1	4.9
Cc1cccc(C)c1-c1cc(-c2nc(C)c(C)[nH]2)cs1	4.5
COc1c(-c2nc(C)c(C)[nH]2)cccc1-c1c(C)cccc1C	< 4
COc1cc(-c2c(C)cccc2C)cc(-c2nc(C)c(C)[nH]2)c1OC	4.6
COc1c(-c2c(C)cccc2C)cc2ccoc2c1-c1nc(C)c(C)[nH]1	5.4
Cc1nc(-c2cccc(/C=C/c3ccccc3)c2)[nH]c1C	4.4
Cc1nc(-c2cccc(C(=O)Nc3ccccc3)c2)[nH]c1C	4
Cc1cccc(C)c1CNc1cccc(-c2nc(C)c(C)[nH]2)c1	4.3
COc1ccc(-c2nc(C)c(C)[nH]2)cc1-c1c(C)cccc1C	4.9
COC(=O)COc1ccc(-c2c(C)cccc2C)cc1-c1nc(C)c(C)[nH]1	5.9
Cc1cccc(C)c1-c1ccc(OC(F)F)c(-c2nc(C)c(C)[nH]2)c1	5
Cc1cccc(C)c1-c1ccc(-c2nc(C)c(C)[nH]2)s1	4.1
Cc1cscc1-c1cccc(-c2nc(C)c(C)[nH]2)c1	4.8
Cc1nc(-c2ccccc2-c2ccccc2)[nH]c1C	4.2
CCCn1c(-c2cc(-c3c(C)cccc3C)ccc2OC)nc(C)c1C	4.9

Further lines, results first:

pIC50	Compound
4.9	Cc1cccc(C)c1Nc1cccc(-c2nc(C)c(C)[nH]2)c1
5.1	Cc1ccccc1-c1cccc(-c2nc(C)c(C)[nH]2)c1
4.3	CCCn1ccnc1-c1cccc(-c2c(C)cccc2C)c1
5.7	Cc1cccc(C)c1-c1ccc(O)c(-c2nc(C)c(C)[nH]2)c1
4.9	Cc1ccc(-c2nc(C)c(C)[nH]2)cc1-c1c(C)cccc1C
4.5	Cc1cccc(C)c1-c1cccc(-c2cc(N)ccn2)c1
4.3	CNCc1cccc(-c2c(C)cccc2C)c1
4.4	Cc1cccc(C)c1-c1cccc(N2CCN(C)CC2)c1
4.4	Cc1cccc(C)c1-c1cccc(-c2cncn2C)c1
4.8	COc1ncccc1-c1cc(-c2nc(C)c(C)[nH]2)cc(-c2c(C)cccc2C)c1
4.7	Cc1nc(-c2cccc(-c3ccccc3)c2)[nH]c1C
4.6	Cc1cccc(C)c1-c1cccc(-c2nc(C)c(C)n2C)c1
5.2	Cc1cccc(C)c1-c1cccc(-c2nc(C)c(C)[nH]2)c1
4.8	CCc1nc(-c2cccc(-c3c(C)cccc3C)c2)[nH]c1CC
4.5	Cc1cccc(C)c1-c1cccc(-c2ncc[nH]2)c1
5.1	CCc1cccc(CC)c1-c1cccc(-c2nc(C)c(C)[nH]2)c1
6.1	COc1ccc(-c2c(C)cccc2C)cc1-c1nc(C)c(C)[nH]1
5.2	Cc1cccc(C)c1-c1cccc(-c2nccn2C)c1
4.8	Cc1cccc(C)c1-c1cccc(-c2cn(C)c(C)n2)c1
4.4	Cc1cccc(C)c1-c1ccc(-c2nc(C)c(C)[nH]2)cc1
5.6	CCOc1ccc(-c2c(C)cccc2C)cc1-c1nc(C)c(C)[nH]1
4.4	Cc1cccc(C)c1-c1cccc(-c2nc3ccccc3[nH]2)c1
< 4	Cc1cccc(C)c1-c1cc(-c2nc(C)c(C)[nH]2)ccc1-c1ccncc1
